For one assay, the target named is T1, Rubisco (Chlamydomonas reinhardtii, UniProt P00873).
T1 construct: Rubisco was purified from Chlamydomonas reinhardtii strain cMJ030; endogenous in cells; host or cells: Chlamydomonas reinhardtii strain cMJ030 (wild type); holoenzyme purified from lysate by sucrose gradient and anion exchange
The experiment in a line: Surface plasmon resonance (SPR) assay of peptides binding to immobilized Rubisco. Here is the method: Surface Plasmon Resonance (SPR) Assay Rubisco was immobilized on a surface and peptides in solution were flowed over the surface. Surface plasmon measurements of binding of individual peptides to Rubisco were assayed (FIG. 3B).
Rubisco was purified from Chlamydomonas reinhardtii strain cMJ030. Cells were disrupted by ultrasonication in lysis buffer (10 mM MgCl2, 50 mM Bicine, 10 mM NaHCO3, 1 mM dithiothreitol (DTT) pH 8.0) supplemented with Halt Protease Inhibitor Cocktail, EDTA-Free (Fisher Scientific). The soluble lysate was fractionated by ultracentrifuge in a 10%-30% sucrose gradient in a SW 41 Ti rotor at 35,000 rpm for 20 hours at 4° C. Rubisco-containing fractions were applied to an anion exchange column (MONO Q 5/50 GL, GE Healthcare) and fractionated by using a linear salt gradient from 0 to 0.5 M NaCl (10 mM MgCl2, 50 mM Bicine, 10 mM NaHCO3, 1 mM dithiothreitol pH 8.0).
Mutagenesis of EPYC1, Mutagenesis of Rubisco, Yeast Two-hybrid, Peptide Arrays and SPR Assays To determine the importance of individual EPYC1 residues for binding to Rubisco, the impact on Rubisco binding of every possible single amino acid substitution for EPYC1 RBM 2 was determined (FIG. 8). […]
SPR Assays: The Rubisco-binding capacity for the C-terminal motif variant (W[+]xxΨ ) was determined using SPR by probing purified Rubisco with fifteen amino acid-long synthetic peptides. […]
A general note: In SPR one partner is held on a chip, and binding of the other changes the refractive index at the surface.

A further assay has as its system C. reinhardtii cells. Put plainly: Confocal fluorescence microscopy localization of Venus fusion proteins. It is filed as cell-based, Chlamydomonas reinhardtii. The conditions noted are these: Venus fluorescence in C. reinhardtii cells. From the text: A synthetic […] (Invitrogen) containing a 643 bp restriction fragment containing the C-terminus of Venus, followed by the sequence coding for the FLAG-tag sequence, and a sequence coding for three repetitions of the 15 C-terminal amino acids of SAGA2, was cloned into pLM005-FDX1, after restriction digestion with EcoRl and PfIMI. GenBank accession number of the empty pLM005 is KX077945.1. The plasmid pLM005-FDX1 is identical to pLM005 with the genomic sequence of FDX1 cloned in frame by Gibson Assembly (Mackinder et al., PNAS 113: 5958-5963, 2015) between residues 2698 and 3234. The terminal 85 amino acids of resultant mature fusion protein, immediately downstream of the FLAG-tag, were a 5 aa linker (GGGGS; SEQ ID NO: 87), a first copy of SAGA2 15 C-terminal aa, followed by a 10 aa linker (2X GGGGS; SEQ ID NO: 88), a second copy of SAGA2 15 last aa, another 10 aa linker (2X GGGGS; SEQ ID NO: 88), and finally a third copy of SAGA2 15 last aa. The sequence of the EcoRI-PfIMI digestion fragment (SEQ ID NO: 89) was cloned in frame into pLM005-FDX1.
Culturing and Transformation of C. reinhardtii: Culturing and transformation of C. reinhardtii for fluorescence localization of protein and imaging was performed as described in Mackinder et al. (PNAS 113: 5958-5963, 2015). […]

The text below walks through data of US20220275390A1, “RUBISCO-BINDING PROTEIN MOTIFS AND USES THEREOF” (The Trustees of Princeton University, priority 2019, published 2022).

Residues, ends and D or L forms follow the SMILES beside them.

T1 sequence (P00873 46-185, other chains not shown): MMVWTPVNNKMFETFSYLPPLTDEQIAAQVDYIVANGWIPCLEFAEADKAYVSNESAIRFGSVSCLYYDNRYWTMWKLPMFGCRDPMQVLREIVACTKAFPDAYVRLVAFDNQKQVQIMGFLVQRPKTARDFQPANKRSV

A word on the Kd: it is the constant that tells how readily two partners part at equilibrium. A lower Kd goes with a tighter complex. For the molecule `CC(C)C[C@H](NC(=O)[C@H](CO)NC(=O)[C@H](CCC(=O)O)NC(=O)[C@H](CC(C)C)NC(=O)[C@H](CCC(=O)O)NC(=O)[C@H](CCC(N)=O)NC(=O)[C@H](CCCNC(=N)N)NC(=O)[C@H](Cc1c[nH]c2ccccc12)NC(=O)[C@H](CC(N)=O)NC(=O)[C@H](C)NC(=O)[C@@H]1CCCN1C(=O)[C@H](CC(C)C)NC(=O)[C@@H](NC(=O)[C@H](CO)NC(=O)[C@H](CCCNC(=N)N)NC(=O)[C@@H](NC(=O)[C@@H]1CCCN1C(=O)[C@H](CO)NC(=O)[C@@H](NC(=O)[C@H](CCCNC(=N)N)NC(=O)[C@H](CC(N)=O)NC(=O)[C@@H](N)[C@@H](C)O)C(C)C)[C@@H](C)O)C(C)C)C(=O)N[C@@H](CCCNC(=N)N)C(=O)N[C@@H](CC(N)=O)C(=O)O` [EPYC1 fragment] (H-TNRVSPTRSVLPANWRQELESLRN-OH), the Kd at Rubisco (KD, 24 amino acid EPYC1 fragment spanning RBM 2 binding to Rubisco, FIG. 4C) came to 3.09 mM; on Rubisco (Kd, individual EPYC1 RBM peptides binding to Rubisco), 3 mM.
Take “RBMP2-Venus: Rubisco-Binding Membrane Protein 2 (SEQ ID NO: 2) fused to the Venus fluorescent protein”: the “localization pattern within the pyrenoid” value in the assay with C. reinhardtii cells (FIG. 15) is “confined to the very heart of the pyrenoid”. Further, in the assay on C. reinhardtii cells (FIGS. 14B and 15), the localization entry is “localized to the pyrenoid”.
